Experimental data published in the supplement of paper PMC11451515.

Test system: SEM cells
Assay: cell viability relative to DMSO control; higher = less cytotoxic
Details: 48 h
In short: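 Leukemia cells (NOMO1 or SEM, 500 cells/well; P12-Ichikawa, 1000 cells/well) were seeded in 5 μl in 1536-well plates after at least four passages of adaptation to each medium. They received library compounds in DMSO by pin dosing, 11 threefold points from 47 μM to 0.79 nM. Luminescence with CellTiter-Glo One was read after 48 h at 37°C. Viability is stated per plate relative to DMSO wells, with cell-free wells as background.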

[1] = HPLM + 10% dialyzed FBS, 0.000781 µM
[2] = HPLM + 10% dialyzed FBS, 0.00234 µM
[3] = HPLM + 10% dialyzed FBS, 0.00702 µM
[4] = HPLM + 10% dialyzed FBS, 0.0211 µM
[5] = HPLM + 10% dialyzed FBS, 0.0632 µM
[6] = HPLM + 10% dialyzed FBS, 0.19 µM
[7] = HPLM + 10% dialyzed FBS, 0.569 µM
[8] = HPLM + 10% dialyzed FBS, 1.71 µM
[9] = HPLM + 10% dialyzed FBS, 5.12 µM
[10] = HPLM + 10% dialyzed FBS, 15.4 µM
[11] = HPLM + 10% dialyzed FBS, 46.1 µM
[12] = RPMI 5 mM glucose + 10% FBS, 0.000781 µM
[13] = RPMI 5 mM glucose + 10% FBS, 0.00234 µM
[14] = RPMI 5 mM glucose + 10% FBS, 0.00702 µM
[15] = RPMI 5 mM glucose + 10% FBS, 0.0211 µM
[16] = RPMI 5 mM glucose + 10% FBS, 0.0632 µM
[17] = RPMI 5 mM glucose + 10% FBS, 0.19 µM
[18] = RPMI 5 mM glucose + 10% FBS, 0.569 µM
[19] = RPMI 5 mM glucose + 10% FBS, 1.71 µM
[20] = RPMI 5 mM glucose + 10% FBS, 5.12 µM
[21] = RPMI 5 mM glucose + 10% FBS, 15.4 µM
[22] = RPMI 5 mM glucose + 10% FBS, 46.1 µM
[23] = RPMI 5 mM glucose + 10% dialyzed FBS, 0.000781 µM
[24] = RPMI 5 mM glucose + 10% dialyzed FBS, 0.00234 µM
[25] = RPMI 5 mM glucose + 10% dialyzed FBS, 0.00702 µM
[26] = RPMI 5 mM glucose + 10% dialyzed FBS, 0.0211 µM
[27] = RPMI 5 mM glucose + 10% dialyzed FBS, 0.0632 µM
[28] = RPMI 5 mM glucose + 10% dialyzed FBS, 0.19 µM
[29] = RPMI 5 mM glucose + 10% dialyzed FBS, 0.569 µM
[30] = RPMI 5 mM glucose + 10% dialyzed FBS, 1.71 µM
[31] = RPMI 5 mM glucose + 10% dialyzed FBS, 5.12 µM
[32] = RPMI 5 mM glucose + 10% dialyzed FBS, 15.4 µM
[33] = RPMI 5 mM glucose + 10% dialyzed FBS, 46.1 µM

Row | Structure (SMILES) | cell viability [1] [%] | cell viability [2] [%] | cell viability [3] [%] | cell viability [4] [%] | cell viability [5] [%] | cell viability [6] [%] | cell viability [7] [%] | cell viability [8] [%] | cell viability [9] [%] | cell viability [10] [%] | cell viability [11] [%] | cell viability [12] [%] | cell viability [13] [%] | cell viability [14] [%] | cell viability [15] [%] | cell viability [16] [%] | cell viability [17] [%] | cell viability [18] [%] | cell viability [19] [%] | cell viability [20] [%] | cell viability [21] [%] | cell viability [22] [%] | cell viability [23] [%] | cell viability [24] [%] | cell viability [25] [%] | cell viability [26] [%] | cell viability [27] [%] | cell viability [28] [%] | cell viability [29] [%] | cell viability [30] [%] | cell viability [31] [%] | cell viability [32] [%] | cell viability [33] [%]
1 | CC(=O)Oc1ccccc1C(=O)Nc1ncc([N+](=O)[O-])s1 | 85.4 | 88.9 | 89 | 91.3 | 84.3 | 107 | 98.3 | 104 | 96.9 | 93.1 | 66.3 | 85 | 100 | 92.6 | 101 | 90.5 | 107 | 94.7 | 101 | 104 | 85.4 | 79.6 | 87.1 | 93 | 99.6 | 100 | 108 | 106 | 101 | 104 | 100 | 94.2 | 82.7
2 | C[C@@H](CN1CC(=O)NC(=O)C1)N1CC(=O)NC(=O)C1 | 86.3 | 103 | 102 | 96.6 | 70.9 | 32.1 | 17.2 | 12.8 | 10.5 | 5.86 | 4.47 | 93.6 | 99.3 | 98.2 | 67.1 | 72.1 | 17.1 | 9.93 | 8.96 | 7.24 | 4.49 | 3.85 | 75 | 101 | 92.6 | 82.5 | 61.1 | 18.6 | 8.07 | 8.83 | 7.97 | 4.17 | 3.08
3 | COC1=CC=C(C(=C1)OC(C)C)C/2=N/[C@@H]([C@@H](N2C(=O)N3CCNC(=O)C3)C4=CC=C(Cl)C=C4)C5=CC=C(Cl)C=C5 | 92.4 | 110 | 112 | 106 | 87.1 | 56.5 | 42.5 | 33.1 | 29.2 | 16.1 | 5.42 | 100 | 125 | 99.9 | 105 | 60.6 | 55.6 | 46.5 | 34.5 | 23.6 | 6.03 | 1.48 | 101 | 106 | 101 | 83.5 | 79.8 | 45.1 | 41.1 | 27.8 | 20.5 | 12.3 | 3.12
4 | CN1\C=N/C2=CC=C(NC3=CC(=CC=C3C)NC(=O)C4=CC(=CC=C4)C(C)(C)C#N)C=C2C1=O | 101 | 93.6 | 112 | 117 | 107 | 101 | 87.4 | 95.5 | 74.8 | 79.4 | 44.1 | 113 | 122 | 107 | 114 | 113 | 105 | 101 | 96.7 | 87.7 | 84.2 | 31.9 | 93.6 | 97.9 | 92.4 | 115 | 101 | 107 | 101 | 102 | 70 | 75.8 | 34.9
5 | COC1=C(OCCCN2CCOCC2)C=C3N=CC=C(OC4=CC=C(C=C4F)\C5=C\N=C(\NC6=CC=C(F)C=C6)N(C)C5=O)C3=C1 | 110 | 112 | 110 | 91.7 | 68.9 | 57.7 | 59 | 52.4 | 47.8 | 40.7 | 5.64 | 103 | 108 | 113 | 81.2 | 79.4 | 65.2 | 46.7 | 56.5 | 52.6 | 37.6 | 1.97 | 110 | 116 | 103 | 77.9 | 73.8 | 52 | 45.9 | 44 | 43 | 34.8 | 3.15
6 | Cc1ccc([S+](=O)([O-])OCC(=O)Nc2ccc(C(=O)O)c(O)c2)cc1 | 101 | 97.1 | 127 | 118 | 125 | 106 | 125 | 132 | 136 | 137 | 80.5 | 107 | 109 | 124 | 122 | 138 | 130 | 150 | 142 | 153 | 81.9 | 11.9 | 99.7 | 103 | 134 | 131 | 123 | 140 | 125 | 147 | 144 | 109 | 43.7
7 | O=C(O)c1cc(/N=N/c2ccc([S+](=O)([O-])Nc3ccccn3)cc2)ccc1O | 84.9 | 108 | 95.3 | 76.3 | 101 | 103 | 122 | 106 | 110 | 90.8 | 98.2 | 98.8 | 101 | 108 | 71.9 | 103 | 114 | 112 | 97.2 | 89.3 | 116 | 75.1 | 91.7 | 102 | 96.2 | 76.8 | 117 | 91.5 | 97.5 | 106 | 95.5 | 89.4 | 82.1
8 | Cc1ccnc2c1NC(=O)c1cccnc1N2C1CC1 | 63.6 | 84.2 | 97.9 | 101 | 95.8 | 97.2 | 106 | 107 | 91.8 | 102 | 111 | 83.7 | 85.2 | 84.6 | 85.4 | 96.7 | 96.8 | 90.9 | 101 | 99.4 | 105 | 99.6 | 90.8 | 86.6 | 94.5 | 90.1 | 90.1 | 89.7 | 93 | 90.4 | 105 | 101 | 93.6
9 | NC(=O)c1ccc(N(C(N)=O)c2c(F)cccc2F)nc1-c1ccc(F)cc1F | 85.2 | 81.2 | 88.2 | 79.5 | 89.5 | 94 | 106 | 99.7 | 88.5 | 51.7 | 77.5 | 116 | 88.8 | 80.1 | 97.4 | 119 | 95 | 89 | 104 | 102 | 52.3 | 94.9 | 87.6 | 86.7 | 89.4 | 94.7 | 93.2 | 94.9 | 88.3 | 100 | 92.1 | 41.1 | 66.8
10 | CN(C)CC(C)(C)CNc1nn2c(-c3ccccc3)nnc2cc1C1CCC1 | 79.6 | 98.8 | 100 | 98 | 92.1 | 114 | 5.79 | 101 | 92.3 | 82.7 | 62.4 | 92.9 | 116 | 104 | 127 | 110 | 125 | 6.41 | 106 | 103 | 81.1 | 73.1 | 68.1 | 123 | 101 | 113 | 105 | 110 | 5.36 | 102 | 106 | 71.8 | 77.8
11 | CC(C)OC(=O)[C@H](C)N[P@](=O)(OC[C@H]1O[C@@H](N2\C=C/C(=O)NC2=O)[C@](C)(F)[C@@H]1O)OC3=CC=CC=C3 | 105 | 111 | 122 | 120 | 99.4 | 131 | 106 | 98.4 | 57.7 | 17.6 | 18.5 | 125 | 120 | 130 | 122 | 121 | 125 | 125 | 120 | 88.1 | 14.3 | 9.48 | 101 | 109 | 106 | 120 | 111 | 115 | 107 | 105 | 86.8 | 17.3 | 9.7
12 | CCCCCCCCCCCCCC(=O)N[C@H](CO)[C@H](O)c1ccc([N+](=O)[O-])cc1 | 97.4 | 81.4 | 89.5 | 95.4 | 98.9 | 65.1 | 79.7 | 39.8 | 13.8 | 3.54 | 2.38 | 99.6 | 76.1 | 89.1 | 103 | 95.5 | 55.4 | 66.5 | 25.1 | 9.49 | 3.9 | 2.41 | 87.3 | 81.9 | 85.2 | 94.3 | 93.1 | 55.2 | 83 | 36 | 8.3 | 4.49 | 2.85
13 | C=CC(=O)Nc1cc2c(Nc3ccc(F)c(Cl)c3)ncnc2cc1OCCCN1CCOCC1 | 112 | 107 | 112 | 128 | 110 | 124 | 114 | 90.3 | 55 | 39.2 | 26.7 | 87.7 | 81.5 | 85.3 | 84 | 73.1 | 78.6 | 80.2 | 68.6 | 41.7 | 24.2 | 42.9 | 119 | 114 | 95.4 | 127 | 112 | 110 | 108 | 89 | 56.3 | 29.1 | 58.8
14 | CC(C(=O)O)c1ccc2c(c1)CC(=O)c1ccccc1S2 (stereo not given) | 99.9 | 117 | 109 | 115 | 94.3 | 112 | 95.4 | 114 | 126 | 116 | 115 | 111 | 109 | 116 | 104 | 103 | 105 | 117 | 121 | 99.4 | 107 | 96.5 | 122 | 115 | 129 | 133 | 124 | 108 | 116 | 117 | 110 | 129 | 118
15 | CC(N[C@H]1CCCC[C@@H]1NC(=O)c1ccc(Cl)cc1)c1cccc2ccccc12 (stereo not given in full) | 98.2 | 105 | 110 | 114 | 111 | 112 | 101 | 115 | 112 | 118 | 119 | 92.2 | 102 | 109 | 120 | 107 | 108 | 121 | 113 | 119 | 138 | 110 | 120 | 112 | 109 | 114 | 116 | 114 | 125 | 127 | 115 | 133 | 121
